Consider two compounds from US20120010253A1, “Fungicidal compositions comprising Fluopyram and Metrafenone” (BASF SE, priority 2009, published 2012).

One assay has as its system Botrytis cinerea. As to the kind of experiment: Activity against the grey mold Botrytis cinerea in the microtiter plate test. It counts as cell-based. Conditions: MTP, 405 nm, 7 days after inoculation. How it is done:
The active substances were formulated separately as a stock solution in dimethyl sulfoxide (DMSO) at a concentration of 10 000 ppm. Use Example 1—Activity Against the Grey Mold Botrytis cinerea in the Microtiter Plate Test The stock solutions were mixed according to the ratio, pipetted onto a micro titer plate (MTP) and diluted with water to the stated concentrations. A spore suspension of Botrci cinerea in an aqueous biomalt solution was then added. The plates were placed in a water vapor-saturated chamber at a temperature of 18° C. Using an absorption photometer, the MTPs were measured at 405 nm 7 days after the inoculation. The measured parameters were compared to the growth of the active compound-free control variant (100%) and the fungus-free and active compound-free blank value to determine the relative growth in % of the pathogens in the respective active compounds. These percentages were converted into efficacies. The expected efficacies of active compound mixtures were determined using Colby's formula [R. S. Colby, “Calculating synergistic and antagonistic responses of herbicide combinations”, Weeds 15, 20-22 (1967)] and compared with the observed efficacies.

The next assay deals with Pyrenophora teres. As to the kind of experiment: Activity against Pyrenophora teres (net blotch on barley) in the microtiter plate test. It counts as cell-based. The following applies: MTP, 405 nm, 7 days after inoculation. How it is done: The active substances were formulated separately as a stock solution in dimethyl sulfoxide (DMSO) at a concentration of 10 000 ppm. Use Example 2—Activity Against Pyrenophora teres (Net Blotch on Barley) in the Microtiter Plate Test The stock solutions were mixed according to the ratio, pipetted onto a micro titer plate (MTP) and diluted with water to the stated concentrations. A spore suspension of Pyrenophora teres in an aqueous biomalt solution was then added. The plates were placed in a water vapor-saturated chamber at a temperature of 18° C. Using an absorption photometer, the MTPs were measured at 405 nm 7 days after the inoculation. The measured parameters were compared to the growth of the active compound-free control variant (100%) and the fungus-free and active compound-free blank value to determine the relative growth in % of the pathogens in the respective active compounds. These percentages were converted into efficacies. The expected efficacies of active compound mixtures were determined using Colby's formula [R. S. Colby, “Calculating synergistic and antagonistic responses of herbicide combinations”, Weeds 15, 20-22 (1967)] and compared with the observed efficacies.

In the case of `COc1cc(C)c(C(=O)c2c(OC)ccc(Br)c2C)c(OC)c1OC` [Metrafenon, Metrafenone], the “Observed efficacy (%)” value came to 10% in the assay on Botrytis cinerea (16 ppm), 3% in the assay with Pyrenophora teres (0.063 ppm) and 18% in the assay on Pyrenophora teres (1 ppm).
Consider `O=C(NCCc1ncc(C(F)(F)F)cc1Cl)c1ccccc1C(F)(F)F` [Fluopyram], for which the figures for the “Observed efficacy (%)” value with Botrytis cinerea (0.25 ppm), with Pyrenophora teres (0.063 ppm) and in the assay on Pyrenophora teres (0.25 ppm) were 18%, 16% and 60%, respectively.
